Data published in US20060234919A1, “Use” (priority 2001, published 2006).
Like-named read-outs stand apart in the source and are kept apart here.

Legend:
[1] = tested on: carrageenan induced edema; assay: carrageenan induced edema of the rat hindpaw (plethysmometer); format: in vivo; settings: for carrageenan induced edema, percentage increase from pre-treatment values in hindpaw volume: 1000 μg/kg s.c., p<0.05
Experimental: Male Sprague-Dawley rats (260-300 g for s.c. injected and 340-380 g for i.c.v. injected) were used (B&K Universal A B, Sollentuna, Sweden). The animals arrived at least one week before experiments and were housed three-four per cage (except animals provided with i.c.v. cannulas that were housed individually) with free access to food (R36, Ewos, Södertälje, Sweden) and water. The light schedule was a 12/12 h light/dark cycle, and ambient temperature was 20±2° C.
Oxytocin and the oxytocin antagonist (1-deamino-2-D-Tyr-(OEt)-4-Thr-8-Orn-oxytocin) (Ferring, Malmö, Sweden) were dissolved in physiological saline and injected in a volume of 1 ml/kg s.c. in the dorsal neck. Dexamethasone (Decadron®, Merck, Sharp & Dome, USA) was administered intramuscularly (i.m.). Oxytocin given i.c.v. was dissolved in a volume of 5 μl physiological saline and slowly injected over a period of 1 minute through the i.c.v. guide cannula via a 25 G stain-less-steel injection needle connected to a 10 μl Hamilton syringe via a polyethylene tube. Controls received saline in the same amounts.
The model of inflammation used, the carrageenan induced edema, is a commonly used model for studies of inflammation and for testing novel anti-inflammatory drugs (Winter C A, Risley E A, Nuss G W. Carrageenan-induced edema in hind paw of the rat as an assay for anti-inflammatory drugs. Proc Soc Exp Biol Med 1962; 111:544-7). To produce acute inflammation, carrageenan, 2 mg in 0.1 ml saline, was injected s.c. into the plantar region of the rat right hindpaw.
The rats were treated s.c. with oxytocin (1.0, 10, 100 or 1000 μg/kg (n=8 in each group) or saline (n=8+8) immediately before the carrageenan injection. The edema of the right hindpaw was measured (volume in ml) using a plethysmometer (Ugo Basile, type 7150, Florence, Italy) before treatment, half an hour after, one hour after, and then every hour up to 6 or 10 hours after treatment.
The results are presented as means±SD. Statistical analysis was performed by means of a 1-way ANOVA, followed by Fisher's test for post-hoc comparisons. In the analysis of myeloperoxidase accumulation, a Student's t-test was used. P-values of 0.05 or less were regarded as statistically significant.
The rats were treated s.c. with oxytocin (1000 μg/kg) and the oxytocin antagonist (1000 μg/kg) (the antagonist was given 30 minutes before oxytocin) (n=8), the oxytocin antagonist alone (1000 μg/kg) (n=8) or saline (n=8) immediately before the carrageenan injection. Measurements as in Example 1.
The rats were treated i.c.v. with oxytocin (1.0 μg/kg) (n=6) or saline (n=7) immediately before the carrageenan injection. Measurements as in Example 1. The animals were anaesthetised with sodiumpentobarbital (50 mg/kg) (Apoteksbolaget, Sweden) injected intraperitoneally (i.p.). The scull was uncovered, a hole was drilled in the right parietal bone and a guide cannula (21 G) was fixed stereotactically to the scull by means of acrylic dental cement. The coordinates were 1.00 mm posterior and 1.30 mm lateral to the bregma. […] The injection needles (25 G) reached 3.80 mm below the dura mater, with the tip of the needle in the right lateral ventricle. The animals were allowed one week of recovery after the operation. At the end of the experiment, the placement of the guide cannula was checked by injection of 2 μl of toluidine blue.
The rats were treated i.m. with dexamethasone (10 mg/kg) (n=6) or saline (n=6) immediately before the carrageenan injection. The edema of the right hindpaw was measured using the plethysmometer before treatment, and at 2, 4 and 6 hours after treatment.

myeloperoxidase = assay: carrageenan induced myeloperoxidase accumulation in the hindpaw; format: in vivo, rat; settings: 1000 μg/kg s.c.; 6 hours after treatment; saline controls 5.4±1.1; p<0.01
Experimental: The rats were treated s.c. with oxytocin (1000 μg/kg) (n=6) or saline (n=6) immediately before the carrageenan injection. The accumulation of myeloperoxidase in the rat right hindpaw was measured 6 hours after the treatment with oxytocin or saline, and carrageenan. To determine the recruitment of neutrophils in response to the carrageenan induced inflammation in the rat hindpaw, the paws were weighed and homogenised in 10 ml 0.5% hexadecyltrimethyl-ammonium bromide (Sigma Chemical Co, USA), and freeze-thawed, whereafter the myeloperoxidase activity of the supernatant was assessed. The enzyme activity was determined spectrophotometrically as the change in absorbance at 650 nm (25° C.) occuring in the redox reaction of H2O2-tetramethylbenzidine (Sigma Chemical Co, USA) catalysed by myeloperoxidase. Values are expressed as myeloperoxidase units/g tissue. […] The myeloperoxidase concentration (i.e. the neutrophil recruitment) in the hindpaw was 3.5±0.72 units/g tissue in the oxytocin-treated rats compared to 5.4±1.1 units/g in the saline-treated controls (p<0.01) (FIG. 6).

[2] = tested on: collagenase-induced cutaneous inflammation; assay: collagenase-induced cutaneous plasma protein extravasation; format: in vivo, guinea-pig
Experimental: One hour after anaesthesia of guinea-pigs with urethane (1.6 g/kg, i.p.), Evans blue (20 mg/kg) was injected into a jugular vein. Collagenase ([…]) or its solvent ([…] 154 mmol/l NaCl solution) was injected s. c. into the dorsal skin. All doses of collagenase as well as the solvent were injected on both sides of the spine in randomised order. The ensuing plasma protein extravasation was determined at 60 min by extraction of Evans blue (see above) from the dorsal skin.
Oxytocin was dissolved and diluted in DMSO for all experiments involving s. c. injection in volumes of 1.0 ml/kg. All pretreatments were given 1 h prior to the induction of the respective model of inflammation. All animal experiments approved of by Karolinska institutets animal committe.
Oxytocin was a gift from Poly Peptides Copenhagen, Denmark and was dissolved in phosphate-buffered saline (composition in mmol/l: NaCl 136.9, KCl 2.7, KH2PO4 1.5, Na2HPO4 7.7). Cyclophosphamide monohydrate and collagenase from Clostridium histolyticum (type II, clostridiopeptidase A, EC 3.4.24.3) were obtained from Sigma and were dissolved in 154 mmol/l NaCl.

[3] = tested on: ischaemic musculocutaneous skin flaps; settings: previously shown by the inventors, cited from earlier work

## Oxytocin
[1]; 1.0 μg/kg i.c.v., p=0.13
  effect on carrageenan induced paw edema: did not decrease the paw edema
[1]; 1.0 μg/kg s.c.
  effect on carrageenan induced edema: No effect
[1]; 10 μg/kg s.c.
  effect on carrageenan induced edema: No effect
[1]; 100 μg/kg s.c., 4-10 hours after the injection
  effect on carrageenan induced edema: reduced the edema significantly
[1]; 1 hour after the injection, saline controls 43±11%
  carrageenan induced edema, percentage increase from pre-treatment values in hindpaw volume: 21±16%
[1]; 2 hours after the injection, saline controls 61±22%
  carrageenan induced edema, percentage increase from pre-treatment values in hindpaw volume: 30±17%
[1]; 3 hours after the injection, saline controls 79±21%
  carrageenan induced edema, percentage increase from pre-treatment values in hindpaw volume: 41 ±16%
[1]; oxytocin 1000 μg/kg s.c. with oxytocin antagonist 1000 μg/kg s.c. given 30 minutes before, 1-10 hours after carrageenan
  hindpaw volume compared to controls: significant reduction of the hindpaw volume
[1]; oxytocin 1000 μg/kg s.c. with oxytocin antagonist 1000 μg/kg s.c., at 24 hours
  hindpaw volume compared to controls: significant difference was gone
myeloperoxidase
  myeloperoxidase concentration (neutrophil recruitment) in the hindpaw: 3.5±0.72 units/g tissue
[2]; 1 ug/ml oxytocin, 10 and 30 mg collagenase
  effect on collagenase-induced plasma protein extravasation: no effect
[2]; s.c. pre-treatment 1 mg/ml, 10 mg collagenase, without oxytocin 3.5±1.0
  cutaneous plasma protein extravasation, Evans blue accumulation: 2.2 ± 0.9 mg
[2]; s.c. pre-treatment 1 mg/ml, higher doses of the enzyme
  effect on collagenase-induced plasma protein extravasation: attenuated the effect
[3]; 1 μg/kg i.c.v.
  survival of ischaemic musculocutaneous skin flaps: increases the survival
[3]; 1 mg/kg s.c.
  survival of ischaemic musculocutaneous skin flaps: induced the same effect
